Data reported in patent US20220096399A1 (Berg LLC, priority 2012, published 2022).
“Also recorded” adds a separate entry of the source. Where two headings read alike, the source gives them in different places.

Legend:
[1] = for Maximum tolerated dose (MTD): first interim analysis, highest dose 104.3 mg/kg per dose
Description: An interim analysis was performed on the study participants.
(§1) A standard 3×3 phase I dose-escalation design was used with patients (n=31) with advanced solid malignancies.
Pharmacokinetic (PK) information was calculated with serial serum collection data. Tumor response was determined using RECIST 1.1.

[2] = system: advanced solid malignancies
Description: The study was also performed to examine preliminary efficacy (using RECIST 1.1 criteria), overall clinical benefit, and progression free survival. An interim analysis was performed on the study participants.
as §1
Tumor response was determined using RECIST 1.1.
An exploratory assessment of antitumor activity was undertaken during the study using modified Response Criteria in Solid Tumors (RECIST) v1.1. Tumors were measured at baseline or screening, at the end of Cycle 1 and Cycle 2 treatments, and once every 2 treatment cycles (2 months) thereafter in the absence of clinically rapid progression of disease.

[3] = Phase I trial pharmacokinetic analysis (serial serum collection)
Description: Pharmacokinetic (PK) information was calculated with serial serum collection data. Tumor response was determined using RECIST 1.1. Clinical benefit (decreased pain, increased quality of life) was assessed by the treating physician.
Pharmacokinetic and pharmacodynamic analyses were performed during the study as well.

[4] = Example 4, of 39 evaluable subjects
[5] = person, pleomorphic fibrosarcoma, 6 cycles, 22.5 to 58.7 mg/kg/dose

Q: For `COC1=C(OC)C(=O)C(C/C=C(\C)CC/C=C(\C)CC/C=C(\C)CC/C=C(\C)CC/C=C(\C)CC/C=C(\C)CC/C=C(\C)CC/C=C(\C)CC/C=C(\C)CCC=C(C)C)=C(C)C1=O` [CoQ10, Coenzyme Q10], which “Maximum tolerated dose (MTD)” value ([1]; 104.3 mg/kg) is on record?
A: has not been identified; also recorded: had not been reached

Q: And the “Maximum tolerated dose (MTD)” value ([1]; listed as coenzyme Q10, 104.3 mg/kg)?
A: no MTD had been reached

Q: And the “Patients reporting headache during first week of treatment (%)” value ([1]; in vivo)?
A: 29.0%

Q: What about the “Patients reporting headache during first week of treatment (number)” value ([1]; in vivo) of the same compound?
A: Nine

Q: What about the “Patients with Grade I asymptomatic elevation of INR (%)” value ([1]; in vivo) of the same compound?
A: 74.1%

Q: What about the “Patients with Grade I asymptomatic elevation of INR (number)” value ([1]; in vivo) of the same compound?
A: 23 patients

Q: And the “Patients with Grade II INR elevation of greater than 2.0 (%)” value ([1]; in vivo)?
A: 45.1%

Q: What about the “Patients with Grade II INR elevation of greater than 2.0 (number)” value ([1]; in vivo) of the same compound?
A: 14 patients

Q: What about the “Primary Reason for Discontinuation: Intolerable Toxicity, %” value ([1]; in vivo) of the same compound?
A: 8%

Q: And the “Subjects with INR greater than 3 (%)” value ([1]; in vivo)?
A: 12.9%

Q: And the “Subjects with INR greater than 3 (number)” value ([1]; in vivo)?
A: four

Q: What about the “Subjects with INR greater than 5 (%)” value ([1]; in vivo) of the same compound?
A: 6%

Q: And the “Subjects with INR greater than 5 (number)” value ([1]; in vivo)?
A: two

Q: What about the “Best Response: Unevaluable, %” value ([2]; 50 subjects) of the same compound?
A: 20%

Q: What about the “Best Response: Unknown, %” value ([2]; 50 subjects) of the same compound?
A: 2%

Q: And the “Primary Reason for Discontinuation: Progressive Disease, %” value ([2]; 50 subjects)?
A: 52%

Q: What about the “Best Response: Complete Response, %” value ([2]; 50 subjects, RECIST v1.1) of the same compound?
A: 0%

Q: And the “Best Response: Partial Response, %” value ([2]; 50 subjects, RECIST v1.1)?
A: 2%

Q: What about the “Best Response: Progressive Disease, %” value ([2]; 50 subjects, RECIST v1.1) of the same compound?
A: 30%

Q: And the “Best Response: Stable Disease, %” value ([2]; 50 subjects, RECIST v1.1)?
A: 46%

Q: What about the “Best outcome of partial response (number of subjects)” value [2, 4] of the same compound?
A: 2 subjects

Q: And the “Best outcome of progressive disease (number of subjects)” value [2, 4]?
A: 15 subjects

Q: What about the “Best outcome of stable disease (number of subjects)” value [2, 4] of the same compound?
A: 22 subjects

Q: And the “Average time on treatment of patients with clinical benefit” value ([2]; first interim analysis)?
A: 16 weeks

Q: And the “Median Progression Free survival” value ([2]; first interim analysis)?
A: 2 months

Q: And the “Patients with a clinical benefit (%)” value ([2]; first interim analysis, n=31)?
A: 61.2%

Q: What about the “Patients with a clinical benefit (number)” value ([2]; first interim analysis, n=31) of the same compound?
A: Nineteen

Q: And the “Average time subjects remained on treatment” value ([2]; first interim analysis, treatment until clinical progression)?
A: 90 days

Q: What about the “Progression free survival and/or clinical benefit” value ([2]; interim data summary) of the same compound?
A: a majority of patients enrolled in this trial had an increased progression free survival and/or clinical benefit

Q: And the Tumor responses observed ([2]; interim data summary)?
A: A partial response and minor response were observed

Q: And the “Evaluable subjects with clinically relevant response by RECIST 1.1 (at least stable disease), number” value ([2]; of 40 evaluable subjects)?
A: 24 subjects

Q: And the “Evaluable subjects with clinically relevant response by RECIST 1.1 (at least stable disease), %” value ([2]; of 40 evaluable subjects who completed at least one treatment cycle)?
A: 60%

Q: And the “Duration of partial response” value ([2]; one subject with sarcoma of the extremity)?
A: at least 6 months

Q: And the “Individual outcome: tumor lesion (CT)” value ([2]; person, metastatic myxoid liposarcoma, 58.6 mg/kg/dose, four treatment cycles)?
A: resolution of their anterior mediastinal lesion

Q: And the “Individual outcome: tumor response” value ([2]; person, pleomorphic fibrosarcoma with bone metastasis, 6 cycles, 22.5 to 58.7 mg/kg/dose)?
A: minor response

Q: What about the “Individual outcome: pain” value [2, 5] of the same compound?
A: significant improvement in pain

Q: What about the “Individual outcome: tumor size (CT)” value [2, 5] of the same compound?
A: Tumor shrinkage was also observed

Q: What about the “Individual outcome: duration of response” value ([2]; person, pleomorphic fibrosarcoma, 22.5 to 58.7 mg/kg/dose) of the same compound?
A: over 10 months

Q: What about the “Dose-proportionality of AUC” value ([3]; C31510 formulation, FIG. 5) of the same compound?
A: not strictly proportional to dose

Q: What about the “Dependence of t1/2 on dose” value ([3]; human, IV infusion) of the same compound?
A: little or no dependence on dose

Q: And the Linearity of pharmacokinetics ([3]; human, IV infusion)?
A: linear
